# Species: Rattus norvegicus
# Test: Open TG-GATES - Regimen: Single
# Format: toxicity, organism-based, Sprague-Dawley
# Design: regimen Single, gender Male, age 6 weeks
# Conditions: in vivo, po, route gavage; for TP / gamma-GTP / ALP / AST / BUN / CRE / Ca / Cl / DBIL / GLC / IP / K / LDH / Na / PL / RALB / TBIL / TC / TG: tissue Plasma; for APTT / Bas / Eos / Ht / MCH / MCHC / MCV / Mono / PT / Plat / RBC / Ret / WBC / Fbg: tissue Blood; for KIDNEY_L / KIDNEY_R / KIDNEY_TOTAL: tissue Kidney; for LIVER: tissue Liver
# [1] = 200 mg/kg, 3 h, dose level Middle
# [2] = 200 mg/kg, 6 h, dose level Middle
# [3] = 200 mg/kg, 9 h, dose level Middle
# [4] = 200 mg/kg, 24 h, dose level Middle
# [5] = 600 mg/kg, 3 h, dose level High
# [6] = 600 mg/kg, 6 h, dose level High
# [7] = 600 mg/kg, 9 h, dose level High
# [8] = 600 mg/kg, 24 h, dose level High
compound,measurement,setting,value
CC(=O)Nc1nnc(S(N)(=O)=O)s1 [ACETAZOLAMIDE],TP,"60 mg/kg, 24 h, dose level Low",5.5 g/dL
same,gamma-GTP,"60 mg/kg, 24 h, dose level Low",1.2 IU/L
same,TERMINAL_BW,[1],208.6 g
same,APTT,[1],21.4 s
same,Bas,[1],0%
same,Eos,[1],1%
same,Ht,[1],42%
same,MCH,[1],21 pg
same,MCHC,[1],31.4%
same,MCV,[1],66.7 fL
same,Mono,[1],2.2%
same,PT,[1],16.8 s
same,Plat,[1],124.3 x10_4/uL
same,RBC,[1],629.8 x10_4/ul
same,Ret,[1],8.5%
same,WBC,[1],67.2 x10_2/uL
same,KIDNEY_L,[1],0.9 g
same,KIDNEY_R,[1],0.9 g
same,KIDNEY_TOTAL,[1],1.8 g
same,LIVER,[1],9.2 g
same,ALP,[1],1675.4 IU/L
same,AST,[1],71.2 IU/L
same,BUN,[1],12.2 mg/dL
same,CRE,[1],0.2 mg/dL
same,Ca,[1],11.1 mg/dL
same,Cl,[1],111.2 meq/L
same,DBIL,[1],0 mg/dL
same,GLC,[1],186.4 mg/dL
same,IP,[1],10.2 mg/dL
same,K,[1],3.7 meq/L
same,LDH,[1],191.6 IU/L
same,Na,[1],140.8 meq/L
same,PL,[1],143 mg/dL
same,RALB,[1],3.4 g/dL
same,TBIL,[1],0.012 mg/dL
same,TC,[1],80.4 mg/dL
same,TP,[1],6 g/dL
same,gamma-GTP,[1],1.2 IU/L
same,TERMINAL_BW,[2],207.7 g
same,APTT,[2],22.7 s
same,Bas,[2],0%
same,Eos,[2],1%
same,Fbg,[2],356 mg/dL
same,Ht,[2],42%
same,MCH,[2],21.2 pg
same,MCHC,[2],31.2%
same,MCV,[2],68 fL
same,Mono,[2],2.8%
same,PT,[2],16.9 s
same,Plat,[2],108.6 x10_4/uL
same,RBC,[2],617.6 x10_4/ul
same,Ret,[2],8.8%
same,WBC,[2],85 x10_2/uL
same,KIDNEY_L,[2],1 g
same,KIDNEY_R,[2],1 g
same,KIDNEY_TOTAL,[2],2 g
same,LIVER,[2],8.8 g
same,ALP,[2],1625.8 IU/L
same,AST,[2],71.2 IU/L
same,BUN,[2],11.6 mg/dL
same,CRE,[2],0.2 mg/dL
same,Ca,[2],11.1 mg/dL
same,Cl,[2],113.6 meq/L
same,DBIL,[2],0 mg/dL
same,GLC,[2],186.8 mg/dL
same,IP,[2],9.7 mg/dL
same,K,[2],4 meq/L
same,LDH,[2],180.8 IU/L
same,Na,[2],140 meq/L
same,PL,[2],135.8 mg/dL
same,RALB,[2],3.4 g/dL
same,TBIL,[2],0.024 mg/dL
same,TC,[2],84.2 mg/dL
same,TG,[2],21.4 mg/dL
same,TP,[2],6 g/dL
same,gamma-GTP,[2],1.6 IU/L
same,TERMINAL_BW,[3],200 g
same,APTT,[3],22.9 s
same,Bas,[3],0%
same,Eos,[3],0.8%
same,Fbg,[3],349.4 mg/dL
same,Ht,[3],43.2%
same,MCH,[3],20.8 pg
same,MCHC,[3],31%
same,MCV,[3],67.3 fL
same,Mono,[3],1.8%
same,PT,[3],16.3 s
same,Plat,[3],127.1 x10_4/uL
same,RBC,[3],644 x10_4/ul
same,Ret,[3],8.8%
same,WBC,[3],68.1 x10_2/uL
same,KIDNEY_L,[3],0.9 g
same,KIDNEY_R,[3],1 g
same,KIDNEY_TOTAL,[3],1.9 g
same,LIVER,[3],7.8 g
same,ALP,[3],1777.2 IU/L
same,AST,[3],61.6 IU/L
same,BUN,[3],13.2 mg/dL
same,CRE,[3],0.2 mg/dL
same,Ca,[3],11 mg/dL
same,Cl,[3],114.4 meq/L
same,DBIL,[3],0 mg/dL
same,GLC,[3],175 mg/dL
same,IP,[3],9.7 mg/dL
same,K,[3],3.8 meq/L
same,LDH,[3],182.6 IU/L
same,Na,[3],139 meq/L
same,PL,[3],122.4 mg/dL
same,RALB,[3],3.5 g/dL
same,TBIL,[3],0.026 mg/dL
same,TC,[3],72.4 mg/dL
same,TG,[3],13.8 mg/dL
same,TP,[3],6.1 g/dL
same,gamma-GTP,[3],1.4 IU/L
same,TERMINAL_BW,[4],205.9 g
same,APTT,[4],21.2 s
same,Bas,[4],0%
same,Eos,[4],1%
same,Fbg,[4],349 mg/dL
same,Ht,[4],40.8%
same,MCH,[4],20.9 pg
same,MCV,[4],62.9 fL
same,Mono,[4],2%
same,PT,[4],16.8 s
same,Plat,[4],132.1 x10_4/uL
same,RBC,[4],649.2 x10_4/ul
same,Ret,[4],8.1%
same,WBC,[4],101.2 x10_2/uL
same,KIDNEY_L,[4],1 g
same,KIDNEY_R,[4],1 g
same,KIDNEY_TOTAL,[4],1.9 g
same,LIVER,[4],8.5 g
same,ALP,[4],1929.2 IU/L
same,AST,[4],53.6 IU/L
same,BUN,[4],21.6 mg/dL
same,CRE,[4],0.2 mg/dL
same,Ca,[4],10.8 mg/dL
same,Cl,[4],114.4 meq/L
same,DBIL,[4],0 mg/dL
same,GLC,[4],189.6 mg/dL
same,IP,[4],7.7 mg/dL
same,K,[4],3.6 meq/L
same,LDH,[4],222.4 IU/L
same,Na,[4],142.2 meq/L
same,PL,[4],136.2 mg/dL
same,RALB,[4],3.2 g/dL
same,TBIL,[4],0.016 mg/dL
same,TC,[4],86.4 mg/dL
same,TG,[4],44.6 mg/dL
same,TP,[4],5.7 g/dL
same,gamma-GTP,[4],1.4 IU/L
same,TERMINAL_BW,[5],215.3 g
same,APTT,[5],22.2 s
same,Bas,[5],0%
same,Eos,[5],1.2%
same,Fbg,[5],336.8 mg/dL
same,Ht,[5],42.8%
same,MCH,[5],21.1 pg
same,MCHC,[5],31.1%
same,MCV,[5],67.9 fL
same,Mono,[5],2%
same,Plat,[5],114.9 x10_4/uL
same,RBC,[5],630.4 x10_4/ul
same,Ret,[5],8.1%
same,WBC,[5],60.8 x10_2/uL
same,KIDNEY_L,[5],0.9 g
same,KIDNEY_R,[5],1 g
same,KIDNEY_TOTAL,[5],1.9 g
same,LIVER,[5],9.6 g
same,ALP,[5],1769.8 IU/L
same,AST,[5],76 IU/L
same,BUN,[5],12.2 mg/dL
same,CRE,[5],0.2 mg/dL
same,Ca,[5],11.1 mg/dL
same,Cl,[5],112 meq/L
same,DBIL,[5],0 mg/dL
same,GLC,[5],188.6 mg/dL
same,IP,[5],10.5 mg/dL
same,K,[5],4 meq/L
same,LDH,[5],209.8 IU/L
same,Na,[5],140.2 meq/L
same,PL,[5],140.4 mg/dL
same,RALB,[5],3.3 g/dL
same,TBIL,[5],0.008 mg/dL
same,TG,[5],24.8 mg/dL
same,TP,[5],5.9 g/dL
same,gamma-GTP,[5],1.2 IU/L
same,TERMINAL_BW,[6],204.7 g
same,APTT,[6],23.6 s
same,Bas,[6],0%
same,Eos,[6],1.4%
same,Fbg,[6],340.8 mg/dL
same,Ht,[6],42.8%
same,MCH,[6],21.2 pg
same,MCHC,[6],31.1%
same,MCV,[6],68 fL
same,Mono,[6],2.4%
same,PT,[6],16.8 s
same,Plat,[6],120.2 x10_4/uL
same,RBC,[6],628.2 x10_4/ul
same,Ret,[6],8.5%
same,WBC,[6],85.2 x10_2/uL
same,KIDNEY_L,[6],0.9 g
same,KIDNEY_R,[6],1 g
same,KIDNEY_TOTAL,[6],1.9 g
same,LIVER,[6],8.3 g
same,ALP,[6],1569.2 IU/L
same,AST,[6],69 IU/L
same,BUN,[6],10.6 mg/dL
same,CRE,[6],0.2 mg/dL
same,Ca,[6],11.1 mg/dL
same,Cl,[6],113 meq/L
same,DBIL,[6],0 mg/dL
same,GLC,[6],185.2 mg/dL
same,IP,[6],10.1 mg/dL
same,K,[6],3.8 meq/L
same,LDH,[6],205.4 IU/L
same,Na,[6],138.4 meq/L
same,PL,[6],149.8 mg/dL
same,RALB,[6],3.4 g/dL
same,TBIL,[6],0.016 mg/dL
same,TC,[6],90.4 mg/dL
same,TG,[6],23 mg/dL
same,TP,[6],6 g/dL
same,gamma-GTP,[6],1.2 IU/L
same,TERMINAL_BW,[7],201.6 g
same,APTT,[7],24 s
same,Bas,[7],0%
same,Eos,[7],0.8%
same,Fbg,[7],344.6 mg/dL
same,Ht,[7],43%
same,MCHC,[7],30.9%
same,MCV,[7],66.6 fL
same,Mono,[7],2.2%
same,PT,[7],16 s
same,Plat,[7],123.6 x10_4/uL
same,RBC,[7],645.4 x10_4/ul
same,Ret,[7],8.8%
same,WBC,[7],51.5 x10_2/uL
same,KIDNEY_L,[7],0.9 g
same,KIDNEY_R,[7],0.9 g
same,KIDNEY_TOTAL,[7],1.9 g
same,LIVER,[7],7.7 g
same,ALP,[7],1753.6 IU/L
same,AST,[7],59 IU/L
same,BUN,[7],13.4 mg/dL
same,CRE,[7],0.2 mg/dL
same,Ca,[7],11 mg/dL
same,Cl,[7],114.2 meq/L
same,DBIL,[7],0 mg/dL
same,GLC,[7],172.6 mg/dL
same,IP,[7],10 mg/dL
same,K,[7],3.8 meq/L
same,LDH,[7],176.4 IU/L
same,Na,[7],138.6 meq/L
same,PL,[7],127.8 mg/dL
same,RALB,[7],3.4 g/dL
same,TBIL,[7],0.02 mg/dL
same,TC,[7],85 mg/dL
same,TG,[7],11.4 mg/dL
same,TP,[7],6.1 g/dL
same,gamma-GTP,[7],1.2 IU/L
same,TERMINAL_BW,[8],199.5 g
same,APTT,[8],22.2 s
same,Bas,[8],0%
same,Eos,[8],1%
same,Fbg,[8],359.2 mg/dL
same,Ht,[8],41.1%
same,MCH,[8],20.3 pg
same,MCHC,[8],32.8%
same,MCV,[8],61.9 fL
same,Mono,[8],2.2%
same,PT,[8],16.9 s
same,Plat,[8],112.5 x10_4/uL
same,RBC,[8],663.8 x10_4/ul
same,Ret,[8],8%
same,WBC,[8],74.5 x10_2/uL
same,KIDNEY_L,[8],0.9 g
same,KIDNEY_R,[8],0.9 g
same,KIDNEY_TOTAL,[8],1.9 g
same,LIVER,[8],7.9 g
same,ALP,[8],1549.4 IU/L
same,AST,[8],49.6 IU/L
same,BUN,[8],18.8 mg/dL
same,CRE,[8],0.2 mg/dL
same,Ca,[8],10.7 mg/dL
same,Cl,[8],116.8 meq/L
same,DBIL,[8],0 mg/dL
same,IP,[8],8.2 mg/dL
same,K,[8],3.8 meq/L
same,LDH,[8],205.2 IU/L
same,Na,[8],140.6 meq/L
same,PL,[8],137.4 mg/dL
same,RALB,[8],3.5 g/dL
same,TBIL,[8],0.016 mg/dL
same,TC,[8],89.6 mg/dL
same,TG,[8],26.8 mg/dL
same,TP,[8],6 g/dL
same,gamma-GTP,[8],1.2 IU/L

# Reference: ChEMBL document CHEMBL3885861, “Open TG-GATES”
